SMILES strings stand for the structures. Active and inactive are the calls of the source.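 Rule for the calls: active = compounds giving half or more protection of infected cells from virus-caused growth loss, again on retest; inactive = the rest.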 Where a SMILES comes first, the peptide text is derived from it. [ ]: non-standard residue; d: D form. The star is where a group is joined. ξ: configuration not given here. ξPhe(4-NO2) = NC(Cc1ccc([N+](=O)[O-])cc1)C(=O)O; Boc = CC(C)(C)OC(=O)*

The test has as its system CEM cells HIV-1 protection, formazan growth assay. Nature of the test: NCI AIDS Antiviral Assay. Particulars: for IC50: measured here: growth of uninfected CEM cells. The gist of the method:
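Human CEM cells, uninfected and HIV-1-infected, received five drug concentrations, and growth was read by soluble formazan assay. Compounds giving at least 50% protection were retested; reproducible 100% protection defined confirmed active.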

For orientation: EC50 means the concentration that produces a half-maximal response. What is called IC50 is the concentration needed to halve the response being measured. Higher therefore signals weaker potency. With `COP(=O)(O)C(N)Cc1c[nH]c2ccccc12` (stereo not drawn), the EC50 is more than 200 µM and the IC50 was more than 200 µM.

Take `COc1ncc(C#CC(=O)c2ccccc2OC)c(OC)n1`: the EC50 was more than 0.2 µM and the concentration for half-maximal inhibition (IC50) was 0.132 µM.

As for `CN(CCSSCCN(C)/N=C/c1ccccc1)/N=C/c1ccccc1`, the EC50 was more than 200 µM and the concentration for half-maximal inhibition (IC50) was more than 200 µM.

Turning to `COC1=CC(=O)C(O)=C(C[C@@]2(C)C3CCCC(C)(C)C3=CC[C@@H]2C)C1=O` (stereo partly drawn), the EC50 was more than 363 µM and the half-inhibitory concentration (IC50) was determined as 19.5 µM.

Take `O=C(CCCN1CCC2(CC1)CC(=O)N(N1CCOCC1)C2=O)c1ccc(F)cc1`: the EC50 is more than 200 µM and the 50% inhibitory concentration (IC50) was more than 200 µM.

On to `c1ccc(P(=Nc2ccccc2N=P(c2ccccc2)(c2ccccc2)c2ccccc2)(c2ccccc2)c2ccccc2)cc1`, for which the outcome was inactive.

Consider `Cc1c2ccccc2nc(CSOCCO)[n+]1[O-]`, for which the EC50 was more than 200 µM and the half-maximal inhibitory concentration (IC50) was more than 200 µM.

`C=CCNC(=S)Nc1ccc(Cl)cc1`: the EC50 was more than 200 µM and the IC50 amounted to 120 µM.

For the molecule `O=C1/C(=C/c2cccc([N+](=O)[O-])c2)COc2ccc(Br)cc21`, the EC50 was more than 10.5 µM and the IC50 is more than 10.5 µM.

As to `NC(=S)N/N=C(/CC(=O)c1ccccc1)C(=O)Nc1ccc(Cl)c(Cl)c1`, the EC50 was more than 87.1 µM and the IC50 is more than 87.1 µM.

In the case of `CC1=C(C(=O)CC(=O)C(=O)Nc2cccc(Cl)c2C)Sc2ccccc2N1`, the EC50 is more than 64.6 µM and the IC50 is more than 64.6 µM.

Regarding `CC1=C2c3ccccc3N(C(=O)/C=C/C(=O)O)[C@H]2[C@H]2C(=O)OC(=O)[C@H]2C1`, the EC50 was more than 200 µM and the IC50 was found to be 151 µM.

Turning to `CCN(CC)Cc1c(C(=O)NCCO)[n+](=O)c2ccccc2n1[O-]`, the EC50 is more than 178 µM and the concentration for half-maximal inhibition (IC50) was more than 178 µM.

On to `O=c1c(C=Nc2ccc([N+](=O)[O-])cc2)c(O)n(-c2ccccc2)c(=O)n1-c1ccccc1`, for which the EC50 is more than 200 µM and the IC50 stood at 21.4 µM.

Take `COC(=O)c1ccc(NCc2cc(O)ccc2O)cc1O`: the EC50 was more than 200 µM and the IC50 was found to be 10.5 µM.

Regarding `O=C1OC2(c3ccc(O)cc3Oc3cc(O)ccc32)c2ccccc21`, the EC50 is more than 50.1 µM and the IC50 is more than 50.1 µM.

For the molecule `O=C1NC(=O)/C(=C\c2cccc([N+](=O)[O-])c2)N1`, the EC50 was more than 200 µM and the IC50 was determined as 158 µM.

`CC(CN(C)C)OC(=O)c1cc2ccccc2n1Cc1ccccc1` (stereo not drawn): the EC50 was more than 200 µM and the concentration for half-maximal inhibition (IC50) stood at 87.1 µM.

As to `N[C@H](C(=O)O)[C@@H]1CC(Cl)=NO1`, the EC50 is more than 15.1 µM and the IC50 is more than 15.1 µM.

Turning to `CC(=O)Nc1cc(N=Nc2ccc(NC(=O)c3ccc(N)cc3)cc2C)c(S(=O)(=O)O)cc1N=Nc1ccc(N=Nc2ccc(S(=O)(=O)O)cc2)cc1`, the concentration for a half-maximal effect (EC50) is 5.62 µM and the IC50 was more than 100 µM.

In the case of `COC1=C(C)C2CC(=O)OC3CC4C(C)CC(OC(C)=O)C(=O)[C@]4(C)C(C1=O)[C@@]32C` (stereo partly drawn), the result was inactive.

With `NNC(=O)C1C(C(=O)NN)C2C3C=CC(C4C(=O)NC(=O)C34)C12` (stereo not drawn), the EC50 was more than 200 µM and the IC50 was more than 200 µM.

Turning to `O=C1C2=C(c3ccccc31)C(c1ccccc1)NC(=S)N2` (stereo not drawn), the EC50 is more than 89.1 µM and the half-maximal inhibitory concentration (IC50) came out at 37.2 µM.

With `CC(=O)Nc1ccc2nc(-c3ccccn3)c(-c3ccccn3)nc2c1`, the EC50 was 27.5 µM and the 50% inhibitory concentration (IC50) was more than 200 µM.

As to `C=CCOc1ccc(Sc2c(O)cc(-c3ccccc3)oc2=O)c(C(C)(C)C)c1`, the EC50 is more than 200 µM and the IC50 was determined as 31.6 µM.

Turning to `ON(Cc1ccccc1)C(=S)c1ccccc1`, the EC50 was more than 5.37 µM and the IC50 amounted to 0.372 µM.

As for `CC1(C)Cc2c(C#N)c(N)c3c(c2CO1)C(=O)OC3=O`, the EC50 is more than 19.1 µM and the IC50 was more than 19.1 µM.

Regarding `CC1CN2CC(C)OB(O1)OC(C)C2` (stereo not drawn), the result was inactive.

As for `N#CC(C(N)=O)C(CC(=O)c1ccccc1)c1ccccc1` (stereo not drawn), the EC50 is more than 200 µM and the IC50 was 145 µM.

In the case of `O=S1(=O)OC2(c3ccccc31)c1cc(Br)c(O)c(O)c1Oc1c2cc(Br)c(O)c1O`, the half-maximal effective concentration (EC50) was more than 39.8 µM and the half-inhibitory concentration (IC50) was 36.3 µM.

In the case of `Cc1ccc2[nH]c3c(c2c1)C1CCC(C(C)(C)C)CC1C1C(=O)N(c2ccc(Oc4ccccc4)cc2)C(=O)C31` (stereo not drawn), the EC50 was more than 200 µM and the half-maximal inhibitory concentration (IC50) came to 10.5 µM.

As to `COc1ccc(-c2c(C)c(C)[nH]c(=O)c2C(=O)O)c(OCc2ccccc2)c1OC`, the outcome was inactive.

For `O=C(CCSCCC(=O)NNc1ccccc1)NNc1ccccc1`, the EC50 is more than 20 µM and the IC50 is more than 20 µM.

Take `CC(O)c1ccc[n+](Cc2ccccc2)c1` (stereo not drawn): the EC50 is more than 1000 µM and the half-maximal inhibitory concentration (IC50) came to 776 µM.

In the case of `CCCCN(CCCC)CC(C(C)=O)C(c1ccccc1)c1c(O)c2ccccc2oc1=O` (stereo not drawn), the EC50 is more than 41.7 µM and the IC50 was more than 41.7 µM.

As to `COc1ccc(NC(=O)CC(=O)N2N=C(N(CCC#N)c3ccc(Cl)cc3)CC2c2ccccc2)cc1` (stereo not drawn), the EC50 was more than 36.3 µM and the half-inhibitory concentration (IC50) was more than 36.3 µM.

As for `N#CCCN(CCC#N)c1ccc(/C=C2\N=C(c3ccccc3)N(c3ccc(C(=O)O)cc3)C2=O)cc1`, the EC50 is more than 200 µM and the IC50 came out at 33.9 µM.

Consider `CCCCC(=O)[O-].N.N.N.N.N.[Co+3].[O-][Cl+3]([O-])([O-])[O-]`, for which the outcome was inactive.

For `O=c1[nH]c2ccc(Cl)cc2c2oc(-c3ccccc3)nc12`, the outcome was inactive.

As for `OC1(C(Sc2ccccc2)Sc2ccccc2)CCCCCC1`, the result was inactive.

Take `CCCCCCCCCc1cc(=O)c2ccc(O)cc2o1`: the EC50 is more than 1.91 µM and the half-inhibitory concentration (IC50) was more than 1.91 µM.

For `CCOC(=O)C1C(C)C2(C#N)C(=N)OC1(C)C2(C#N)C#N` (stereo not drawn), the EC50 was more than 200 µM and the 50% inhibitory concentration (IC50) amounted to 83.2 µM.

As for `CC(=O)[O-].CC(=O)[O-].O=C(N/N=C/c1cc(Cl)cc(Cl)c1[OH2+])c1ccncc1.[Co+2]`, the outcome was inactive.

As to `CC1OC(=O)C2CC3CCCCC3C(/C=C/C3CCCC(C)N3C)C12` (stereo not drawn), the outcome was inactive.

For `CC1(C)CCCOc2cccc(c2)OCCCC(C)(C)C1=O`, the EC50 is more than 200 µM and the IC50 was more than 200 µM.

For the molecule `CCNC(=O)CNC(=O)C(Cc1ccc([N+](=O)[O-])cc1)NC(=O)OC(C)(C)C` (stereo not drawn) (Boc-[ξPhe(4-NO2)]-Gly-NHEt), the concentration for a half-maximal effect (EC50) is 162 µM and the half-maximal inhibitory concentration (IC50) turned out to be 813 µM.

Regarding `O=c1c2cccnc2n2n1Cc1ccccc1C2`, the EC50 was more than 200 µM and the IC50 was 151 µM.

For `O=C(O)C1COCN1C(=O)c1cc2ccccc2cc1SSc1cc2ccccc2cc1C(=O)N1COCC1C(=O)O` (stereo not drawn), the EC50 was more than 200 µM and the half-inhibitory concentration (IC50) came to 93.3 µM.

For the molecule `Cc1ccc(Cc2cc(N3CCN(c4cccc(Cl)c4)CC3)nnc2C)cc1`, the EC50 is more than 100 µM and the IC50 was found to be 16.6 µM.

Turning to `O=[N+]([O-])c1ccc(C2=Nc3ccccc3N=C(c3ccccc3O)C2)cc1`, the EC50 is more than 200 µM and the concentration for half-maximal inhibition (IC50) was more than 200 µM.

On to `COC(=O)C1(C(=O)OC)CCCC2=NOC3CCC1C23` (stereo not drawn), for which the EC50 was more than 891 µM and the IC50 is 575 µM.

For `COC(=O)C1C(C(=O)OC)N(Cc2ccccc2)C(=O)N1Cc1ccccc1` (stereo not drawn), the EC50 was more than 200 µM and the IC50 was 120 µM.

Consider `NS(=O)(=O)c1ccc(NC(=O)c2cccnc2Nc2cccc(Cl)c2)cc1`, for which the result was inactive.

With `S=C(c1c[nH]c2ccccc12)N1CCCCC1`, the EC50 is more than 200 µM and the half-inhibitory concentration (IC50) was found to be 44.7 µM.

For the molecule `CCCCNc1cc2oc(=O)cc(C)c2cc1N`, the EC50 was more than 155 µM and the half-inhibitory concentration (IC50) came to 44.7 µM.

For `c1ccc(N/N=C2\NN=C(c3ccccc3)CS2)cc1`, the EC50 was more than 66.1 µM and the IC50 amounted to 35.5 µM.

On to `NC(=O)NC1=NC(Cc2ccccc2)C(=O)N1Cc1ccccc1` (stereo not drawn), for which the EC50 is more than 200 µM and the 50% inhibitory concentration (IC50) turned out to be 182 µM.

Regarding `CN(CCN)[C@H](CSSC[C@@H](c1ccccc1O)N(C)CCN)c1ccccc1O`, the EC50 is more than 200 µM and the IC50 came out at 17.8 µM.

With `O=C1NC(=O)C2(CCCCC2)N1`, the EC50 was more than 200 µM and the half-maximal inhibitory concentration (IC50) was more than 200 µM.

As to `CSc1ncnc2c1C[P+](Cc1ccccc1)(c1ccccc1)CC2` (stereo not drawn), the EC50 was more than 562 µM and the half-inhibitory concentration (IC50) was more than 562 µM.

For the molecule `CC(=O)NNc1nc(C)c(C(/C=C/c2ccc(Cl)cc2)=N/NC(=O)C[N+](C)(C)C)s1`, the EC50 was more than 14.8 µM and the concentration for half-maximal inhibition (IC50) is more than 14.8 µM.

For `CO[C@H]1C[C@H](n2cc(C)c(=O)[nH]c2=O)O[C@@H]1CO`, the EC50 was more than 200 µM and the half-maximal inhibitory concentration (IC50) was more than 200 µM.

As for `Cc1n[nH]c(=O)n1/N=C/c1cccnc1`, the outcome was inactive.

For the molecule `NC(=O)C(=CNc1nc(-c2ccc(Br)cc2)cs1)C(N)=O`, the EC50 was more than 200 µM and the IC50 is 135 µM.

As to `COC(=O)C(/C(=N/NC(=O)c1ccncc1)C(=O)Nc1ccccc1OC)c1nc2ccc(Cl)cc2[nH]c1=O` (stereo not drawn), the EC50 was more than 91.2 µM and the IC50 was more than 91.2 µM.

In the case of `CC1=C2C(=O)C(C)(C)C=C2C(=O)[C@](C)(O)C12CC2`, the result was inactive.

In the case of `O=C1NC(=O)c2c1n(Cc1ccccc1)c(=O)n2Cc1ccccc1`, the EC50 is more than 77.6 µM and the IC50 was more than 77.6 µM.

In the case of `COC1(OC)CC2C(=O)N(Cc3ccccc3)C1C=C2S(=O)(=O)c1ccccc1` (stereo not drawn), the result was inactive.

`O=C(O)C1CC(C(=O)O)SS1` (stereo not drawn): the EC50 is more than 1290 µM and the 50% inhibitory concentration (IC50) was more than 1290 µM.

Turning to `Nc1ncccc1N1C(=O)c2ccccc2C1=O`, the EC50 is more than 200 µM and the IC50 was more than 200 µM.

Consider `O=C(Nc1nc(C23CC4CC(CC(C4)C2)C3)cs1)c1cc2cc(Br)cc(Br)c2oc1=O`, for which the EC50 was more than 200 µM and the concentration for half-maximal inhibition (IC50) came out at 135 µM.

On to `CCOC(=O)CN(c1scc(-c2ccccc2)c1C(=O)OCC)S(=O)(=O)c1ccc(C)cc1`, for which the EC50 is more than 200 µM and the IC50 was found to be 9.33 µM.

Consider `O=c1oc2ccccc2c2nc3cc(Cl)ccc3cc12`, for which the EC50 is more than 50.1 µM and the IC50 is more than 50.1 µM.

For the origin of these results see PubChem BioAssay AID179 (DTP/NCI, 2004).
